Results reported in PubChem BioAssay (NCI).
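96-well plates; 48 h exposure; 5 concentrations. Endpoints by linear interpolation between flanking doses. Not reached: highest tested concentration assigned. TGI is the concentration that stops growth completely.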

Assays:
Experiment in all cases: DTP human tumour cell line panel, 48 h
M14 melanoma = tested on: M14 melanoma
MOLT-4 leukemia = tested on: MOLT-4 leukemia
HT29 colon = tested on: HT29 colon
EKVX NSCLC = tested on: EKVX NSCLC
BT-549 breast = tested on: BT-549 breast
MDA-MB-231 breast = tested on: MDA-MB-231 breast
SF-295 CNS = tested on: SF-295 CNS
MDA-MB-435 = tested on: MDA-MB-435
OVCAR-8 ovarian = tested on: OVCAR-8 ovarian
CAKI-1 renal = tested on: CAKI-1 renal
SN12C renal = tested on: SN12C renal
SF-268 CNS = tested on: SF-268 CNS
SK-MEL-2 melanoma = tested on: SK-MEL-2 melanoma
NCI-H522 lung = tested on: NCI-H522 lung
TK-10 renal = tested on: TK-10 renal
NCI-H460 lung = tested on: NCI-H460 lung
SK-OV-3 ovarian = tested on: SK-OV-3 ovarian
MCF7 breast = tested on: MCF7 breast
HS 578T breast = tested on: HS 578T breast
OVCAR-5 ovarian = tested on: OVCAR-5 ovarian
A549 NSCLC = tested on: A549 NSCLC
SK-MEL-28 melanoma = tested on: SK-MEL-28 melanoma
HOP-92 NSCLC = tested on: HOP-92 NSCLC
COLO 205 colon = tested on: COLO 205 colon
HCT-15 colon = tested on: HCT-15 colon
NCI-H226 lung = tested on: NCI-H226 lung
UACC-62 melanoma = tested on: UACC-62 melanoma
UACC-257 melanoma = tested on: UACC-257 melanoma
SF-539 CNS = tested on: SF-539 CNS
RPMI-8226 leukemia = tested on: RPMI-8226 leukemia
SNB-19 CNS = tested on: SNB-19 CNS
T-47D breast = tested on: T-47D breast
UO-31 renal = tested on: UO-31 renal
IGROV1 ovarian = tested on: IGROV1 ovarian
LOX IMVI melanoma = tested on: LOX IMVI melanoma
HCC-2998 colon = tested on: HCC-2998 colon
OVCAR-4 ovarian = tested on: OVCAR-4 ovarian
SNB-75 CNS = tested on: SNB-75 CNS
NCI/ADR-RES ovarian = tested on: NCI/ADR-RES ovarian
HOP-62 NSCLC = tested on: HOP-62 NSCLC
A498 renal = tested on: A498 renal
RXF 393 renal = tested on: RXF 393 renal
DU-145 prostate = tested on: DU-145 prostate
KM12 colon = tested on: KM12 colon
OVCAR-3 ovarian = tested on: OVCAR-3 ovarian
U251 CNS = tested on: U251 CNS
NCI-H23 lung = tested on: NCI-H23 lung
786-0 renal = tested on: 786-0 renal
HCT-116 colon = tested on: HCT-116 colon
MDA-N = tested on: MDA-N
ACHN renal = tested on: ACHN renal
SK-MEL-5 melanoma = tested on: SK-MEL-5 melanoma
K-562 leukemia = tested on: K-562 leukemia
SW-620 colon = tested on: SW-620 colon
PC-3 prostate = tested on: PC-3 prostate
HL-60(TB) leukemia = tested on: HL-60(TB) leukemia
MALME-3M melanoma = tested on: MALME-3M melanoma
CCRF-CEM leukemia = tested on: CCRF-CEM leukemia

Measured: TGI

Clc1ccc(N=C2c3ccccc3CN2c2ccc(Cl)cc2)cc1
> 100 µM: M14 melanoma | MOLT-4 leukemia | HT29 colon | EKVX NSCLC | BT-549 breast | MDA-MB-231 breast | SF-295 CNS | MDA-MB-435 | OVCAR-8 ovarian | CAKI-1 renal | SN12C renal | SF-268 CNS | SK-MEL-2 melanoma | NCI-H522 lung | TK-10 renal | NCI-H460 lung | SK-OV-3 ovarian | MCF7 breast | HS 578T breast | OVCAR-5 ovarian | A549 NSCLC | SK-MEL-28 melanoma | HOP-92 NSCLC | COLO 205 colon | HCT-15 colon | NCI-H226 lung | UACC-62 melanoma | UACC-257 melanoma | SF-539 CNS | RPMI-8226 leukemia | SNB-19 CNS | UO-31 renal | IGROV1 ovarian | LOX IMVI melanoma | HCC-2998 colon | OVCAR-4 ovarian | SNB-75 CNS | NCI/ADR-RES ovarian | HOP-62 NSCLC | A498 renal | RXF 393 renal | DU-145 prostate | KM12 colon | OVCAR-3 ovarian | U251 CNS | NCI-H23 lung | 786-0 renal | HCT-116 colon | MDA-N | ACHN renal | SK-MEL-5 melanoma | K-562 leukemia | SW-620 colon | PC-3 prostate
94 µM: T-47D breast

COC(=O)[C@]1(C)CC[C@]2(C)CC[C@]3(C)C4[C@H]5Oc6c(cc7c(c6C)CCC6[C@@]7(C)CC[C@@]7(C)C8[C@](C)(CCC[C@@]8(C)C(=O)OC)CC[C@]67C)O[C@H]5c5c(cc6c(c5C)O[C@@]5(C)C7=CC=C8[C@@](C)(CC[C@@]9(C)[C@@H]%10C[C@](C)(C(=O)OC)CC[C@]%10(C)CC[C@]89C)C7=CC(=O)[C@@]5(O)O6)[C@]4(C)CC[C@@]3(C)C2C1 (stereo partly specified)
5.81 µM: IGROV1 ovarian
9.73 µM: MCF7 breast
10.5 µM: EKVX NSCLC | SNB-75 CNS
11.5 µM: HCT-15 colon
12.2 µM: MDA-MB-435
4.56 µM: LOX IMVI melanoma
> 12.5 µM: M14 melanoma | HT29 colon | BT-549 breast | SF-295 CNS | HL-60(TB) leukemia | CAKI-1 renal | SF-268 CNS | NCI-H460 lung | SK-OV-3 ovarian | HS 578T breast | OVCAR-5 ovarian | A549 NSCLC | SK-MEL-28 melanoma | COLO 205 colon | NCI-H226 lung | MALME-3M melanoma | SNB-19 CNS | OVCAR-4 ovarian | NCI/ADR-RES ovarian | HOP-62 NSCLC | A498 renal | DU-145 prostate | KM12 colon | NCI-H23 lung | ACHN renal | SK-MEL-5 melanoma | PC-3 prostate
4.9 µM: CCRF-CEM leukemia
6.94 µM: T-47D breast
7.08 µM: MDA-MB-231 breast
11.6 µM: K-562 leukemia
4.61 µM: UACC-62 melanoma
4.02 µM: MDA-N
6.52 µM: UACC-257 melanoma
4.85 µM: MOLT-4 leukemia
5.95 µM: OVCAR-8 ovarian
11.4 µM: U251 CNS
5.31 µM: SN12C renal
5.91 µM: OVCAR-3 ovarian
3.59 µM: 786-0 renal
5.9 µM: NCI-H522 lung
5.11 µM: UO-31 renal
6.07 µM: TK-10 renal
5.41 µM: SF-539 CNS
6.14 µM: SK-MEL-2 melanoma
4.01 µM: RXF 393 renal
6.69 µM: SW-620 colon
6.63 µM: HCT-116 colon
4.5 µM: HOP-92 NSCLC

CC(C#N)NCc1ccc(C(C)NC(C)C#N)cc1 (stereo unspecified)
> 100 µM: M14 melanoma | MOLT-4 leukemia | HT29 colon | EKVX NSCLC | BT-549 breast | MDA-MB-231 breast | SF-295 CNS | MDA-MB-435 | HL-60(TB) leukemia | OVCAR-8 ovarian | CAKI-1 renal | SN12C renal | SF-268 CNS | SK-MEL-2 melanoma | NCI-H522 lung | TK-10 renal | NCI-H460 lung | SK-OV-3 ovarian | MCF7 breast | HS 578T breast | OVCAR-5 ovarian | A549 NSCLC | SK-MEL-28 melanoma | HOP-92 NSCLC | COLO 205 colon | HCT-15 colon | NCI-H226 lung | MALME-3M melanoma | UACC-62 melanoma | UACC-257 melanoma | CCRF-CEM leukemia | SF-539 CNS | SNB-19 CNS | T-47D breast | UO-31 renal | IGROV1 ovarian | LOX IMVI melanoma | HCC-2998 colon | OVCAR-4 ovarian | NCI/ADR-RES ovarian | A498 renal | RXF 393 renal | DU-145 prostate | KM12 colon | OVCAR-3 ovarian | U251 CNS | NCI-H23 lung | 786-0 renal | HCT-116 colon | MDA-N | ACHN renal | SK-MEL-5 melanoma | K-562 leukemia | SW-620 colon | PC-3 prostate
